Values of other authors in patent publication US12336975B2, “Composition and methods for treatment or prophylaxis of coronavirus and cancers” ([…], priority 2020, dated 2025).

System: COVID-19
Settings: preventive and treatment approach for COVID-19

For `CCN(CCO)CCCC(C)Nc1ccnc2cc(Cl)ccc12` (centres unmarked) [hydroxychloroquine], the “efficacy against COVID-19” value is listed as “no effective results” and the “reported side effect rate” value is listed as 40.1%.
